Measured values as given in patent US20210085789A1, “PHARMACEUTICAL COMPOSITION FOR CANCER TREATMENT” (SEOUL NATIONAL UNIVERSITY R&DB FOUNDATION, priority 2017, published 2021).

Test system: HeLa cells
Assay: CCK-8 cell viability after light irradiation (dose-dependent PDT effect)
Format: cell-based, human
Details: 660 nm LED 30 mW cm−2 for 10 minutes
Method: In order to determine viability of cells treated with FA-MnO2, HeLa cells (1×10^4 cells/well) were prepared in three (3) 96-well plates for 24 hours, and cultured with FA-MnO2 at different concentrations as well as a complete medium. After incubation for 12 hours, the cells were gently washed with 1×PBS and CCK-8 analysis solution as well as a serum-free medium were added thereto for one hour, followed by measuring absorbance at wavelengths of 450 nm and 670 nm using a micro-plate reader (Molecular Devices, Inc., USA).
Next, in order to determine quantitative cell viability associated with photodynamic effects of FA-MnO2/ZnPc, HeLa cells (1×10^4 cells/well) were seeded on a 96-well plate, incubated for 24 hours, and then, treated with FA-MnO2/ZnPc and ZnPc at various concentrations. After the incubation for 12 hours, each well was irradiated with 660 nm LED (Mikwang Electronics, Korea) at 30 mW cm^−2 for 10 minutes. After additional incubation in a serum-containing medium for 12 hours, analysis of CCK-8 cell vitality was assessed in the same manner as described above.

Work on [Zn+2].c1ccc2c(c1)-c1nc-2nc2[n-]c(nc3nc([n-]c4nc(n1)-c1ccccc1-4)-c1ccccc1-3)c1ccccc21 [ZnPc, zinc phthalocyanine] yielded an IC50 of 115.1 ± 3.4 µg/mL.
